In US4288597A, “1,2-Diacylamino-1,2-di(4-pyridyl)ethanes and process for producing thereof” (Laboratorios Made, S.A., priority 1979, dated 1981):

What was measured:
[1] = Analgesic effect by oral route (Siegmund technique modified by Koster, 1% acetic acid irritant); format: in vivo; conditions: products 5 mg/kg, dextropropoxyphene = 1
Procedure: (§1) The object of the studies carried out on all the products was to calculate the acute toxicity, expressed in the form of lethal dose 50, and to evaluate the analgesic effect by administering the drugs orally and intraperitoneally.
(§2) The analgesic effect was evaluated according to the technique of Siegmund et al. (Proc. Soc. Exp. Biol. Med. 95, 729, 1957) modified by Koster et al. (Fed. Proc. 18, 412, 1957), a chemical analgesia test which uses 1% acetic acid as an irritant. The drugs under study were administered at the dose of 1 mg/kg and the reference drug at 25 mg/kg. The evaluation was made 30 minutes after the administrations. The results are given in Table B-1, expressing the results in the form of relative potency (F), giving dextropropoxyphene value 1. [formula]
2. ACTIVITY BY ORAL ROUTE
The foregoing procedure was used, with the difference that the dose of the products under study was 5 mg/kg.

[2] = Acute toxicity, lethal dose 50 (Litchfield-Wilcoxon), intraperitoneal; conditions: mouse, in vivo, ip, mice, deaths recorded three days after administration
Procedure: as §1
Tests were carried out on I.C.R. Swiss albino mice of both sexes weighing between 20 and 35 grams. The products were administered intraperitoneally,recording the number of dead animals three days after administration of the drugs. The statistical method used for the calculation of lethal dose 50 was the Litchfield-Wilcoxon method.

[3] = Analgesic effect by intraperitoneal route (Siegmund technique modified by Koster, 1% acetic acid irritant); format: in vivo; conditions: products 1 mg/kg, reference 25 mg/kg, 30 minutes after administration, dextropropoxyphene = 1
Procedure: There is a series of 19 products, with analgesic activity, the effects whereof were tested using dextropropoxyphene as a reference drug.
as §1
1. ACTIVITY BY INTRAPERITONEAL ROUTE
as §2

Row | SMILES | Analgesic effect by oral route, relative potency F [1] | LD50 at 72 h [2] | Analgesic effect by intraperitoneal route, relative potency F [3]
1 | O=C(NC(c1ccncc1)C(NC(=O)c1cccc(Cl)c1)c1ccncc1)c1cccc(Cl)c1 (stereo not shown) [Example 9] | 1.05 | > 1300 mg/kg | 1.08
2 | O=C(NC(c1ccncc1)C(NC(=O)c1ccc(F)cc1)c1ccncc1)c1ccc(F)cc1 (stereo not shown) [Example 12] | 0.81 | 1110 mg/kg | 1.17
3 | Cc1cc(C)cc(C(=O)NC(c2ccncc2)C(NC(=O)c2cc(C)cc(C)c2)c2ccncc2)c1 (stereo not shown) [Example 7] | 1.17 | > 1600 mg/kg | 1.53
4 | O=C(NC(c1ccncc1)C(NC(=O)c1ccccc1)c1ccncc1)c1ccccc1 (stereo not shown) [Example 3] | 1.35 | > 1300 mg/kg | 1.21
5 | CCC(=O)O[C@](Cc1ccccc1)(c1ccccc1)[C@H](C)CN(C)C [Dextropropoxyphene, dextropropoxyphene, reference compound] |  | 140 mg/kg | 
6 | O=C(NC(c1ccncc1)C(NC(=O)c1ccc(-c2ccccc2)cc1)c1ccncc1)c1ccc(-c2ccccc2)cc1 (stereo not shown) [Example 19] | 1.13 | > 1600 mg/kg | 1.08
7 | O=C(NC(c1ccncc1)C(NC(=O)c1ccccc1Cl)c1ccncc1)c1ccccc1Cl (stereo not shown) [Example 10] | 1.34 | 1060 mg/kg | 1.37
8 | Cc1cccc(C(=O)NC(c2ccncc2)C(NC(=O)c2cccc(C)c2)c2ccncc2)c1 (stereo not shown) [Example 5] | 1.64 | > 1400 mg/kg | 1.85
9 | CCCC(CCC)C(=O)NC(c1ccncc1)C(NC(=O)C(CCC)CCC)c1ccncc1 (stereo not shown) [Example 2] | 0.95 | > 1600 mg/kg | 1.43
10 | CC(=O)NC(c1ccncc1)C(NC(C)=O)c1ccncc1 (stereo not shown) [Example 1] | 0.85 | 1120 mg/kg | 1.01
11 | Cc1ccc(C(=O)NC(c2ccncc2)C(NC(=O)c2ccc(C)cc2)c2ccncc2)cc1 (stereo not shown) [Example 4] | 1.11 | > 1660 mg/kg | 1.04
12 | O=C(NC(c1ccncc1)C(NC(=O)c1ccc(Cl)cc1)c1ccncc1)c1ccc(Cl)cc1 (stereo not shown) [Example 8] | 1.29 | > 1600 mg/kg | 1.58
13 | O=C(Cc1ccccc1)NC(c1ccncc1)C(NC(=O)Cc1ccccc1)c1ccncc1 (stereo not shown) [Example 18] | 2.13 | 1540 mg/kg | 0.96
14 | O=C(NC(c1ccncc1)C(NC(=O)c1cc(Cl)cc(Cl)c1)c1ccncc1)c1cc(Cl)cc(Cl)c1 (stereo not shown) [Example 11] | 1.22 | > 1200 mg/kg | 0.84
15 | Cc1ccccc1C(=O)NC(c1ccncc1)C(NC(=O)c1ccccc1C)c1ccncc1 (stereo not shown) [Example 6] | 1.67 | > 1600 mg/kg | 1.09
16 | O=C(NC(c1ccncc1)C(NC(=O)c1ccc(C(F)(F)F)cc1)c1ccncc1)c1ccc(C(F)(F)F)cc1 (stereo not shown) [Example 13] | 1.19 | > 1200 mg/kg | 1.38
17 | O=C(NC(c1ccncc1)C(NC(=O)c1ccc([N+](=O)[O-])cc1)c1ccncc1)c1ccc([N+](=O)[O-])cc1 (stereo not shown) [Example 16] | 1.25 | > 1600 mg/kg | 1.38
18 | CS(=O)(=O)c1ccc(C(=O)NC(c2ccncc2)C(NC(=O)c2ccc(S(C)(=O)=O)cc2)c2ccncc2)cc1 (stereo not shown) [Example 15] | 1.05 | > 2000 mg/kg | 1.43
19 | CC(C)(C)c1ccc(C(=O)NC(c2ccncc2)C(NC(=O)c2ccc(C(C)(C)C)cc2)c2ccncc2)cc1 (stereo not shown) [Example 17] | 1.17 | > 1600 mg/kg | 1.11
20 | COc1ccc(C(=O)NC(c2ccncc2)C(NC(=O)c2ccc(OC)cc2)c2ccncc2)cc1 (stereo not shown) [Example 14] | 1.23 | > 1600 mg/kg | 1.09
